In patent publication US10413555B2, “Treatment of skin atrophy with a combination of triiodothyroacetic acid (TRIAC) and dehydroepiandrosterone (DHEA)” (TROPHEA DEVELOPMENT AB, priority 2014, dated 2019):
Where two headings read alike, the source gives them in different places.

Tests used:
[1] = topical corticosteroid, Group III; cited from earlier work
[2] = tested on: Procollagen I (PINP); assay: PINP in suction blister fluid from skin pretreated with betamethasone valerate, then treated with test formulations; type: in vivo, human; conditions: suction blister fluid after 14 days treatment
Description: Six healthy male volunteers aged 40-65 years. Criteria for exclusion are: treatment with systemic or topical glucocorticoids, ongoing serious infections, immunosuppression.
TRIAC and DHEA were obtained from Sigma. They were mixed with Essex cream (Merck) to obtain 4 different study formulations: • A. 0.03% TRIAC in Essex cream • B. 0.03% TRIAC and 2% DHEA in Essex cream • C. Essex cream alone. • D. 2% DHEA in Essex cream
A proof-of-concept, single blinded, open prospective study comparing, TRIAC, DHEA and the combination of the two as compared with non-active treatment on short-term glucocorticoid-induced skin atrophy.
The test area was normal looking abdominal skin in 6 male volunteers. Four different skin areas of 10×10 cm were marked with a permanent marker pen.
All areas were pretreated twice daily with betametasone valerate (Betnovate, GSK) 0.5 gr twice daily for 21 days. Then each test area was treated, with 0.5 gr twice daily of one of the test formulations, for 14 days.
Suction blisters were induced with a disposable device (Dermovac, Ventipress, Lappeeranta, Finland) placed on the test areas and connected to a vacuum pump with a vacuum of approximately 60 mm Hg. Each device produces five suction blisters within approximately one hour. The resulting fluid was collected, using a syringe, and then combined and frozen at −70° C. […]

[3] = tested on: post-menopausal women; conditions: DHEA 1% formulation, topical, facial and hand skin, 4 months, versus vehicle; cited from earlier work
[4] = tested on: elderly people; conditions: oral route; cited from earlier work
[5] = tested on: thyroid hormone levels; conditions: cited from earlier work
[6] = tested on: rats; conditions: rat, in vivo, 2000 mg/kg; cited from earlier work
[7] = tested on: metabolic effects; conditions: cited from earlier work
[8] = tested on: psoriasis; conditions: TRIAC 0.1% ointment; cited from earlier work
[9] = tested on: procollagen I and III; conditions: cited from earlier work
[10] = tested on: rats; conditions: cited from earlier work
[11] = tested on: patients with skin atrophy on the dorsum of their hands; conditions: cited from earlier work
[12] = tested on: mice; conditions: cited from earlier work
[13] = tested on: cultured human peripheral lymphocytes; assay: In vitro chromosome aberration assay; type: cell-based
Description: (§1) The genotoxic potential of TRIAC has been investigated in the Ames' test and in in vitro chromosome aberration assay in cultured human peripheral lymphocytes.

[14] = Ames' test; type: cell-based
Description: as §1

CCCCC(=O)O[C@]1(C(=O)CO)[C@@H](C)C[C@H]2[C@@H]3CCC4=CC(=O)C=C[C@]4(C)[C@@]3(F)[C@@H](O)C[C@@]21C [Betamethasone valerate]
potency relative to hydrocortisone [1]: 50-100 times

C[C@]12CC[C@H](O)CC1=CC[C@@H]1[C@@H]2CC[C@]2(C)C(=O)CC[C@@H]12 [DHEA, dehydroepiandrosterone]
PINP concentration, comparison between treatments [2]: only slightly better than treatment with placebo
effect on skin aging features [3]: improved skin brightness and counteract papery appearance of the skin and epidermal atrophy
effect on skin conditions [4]: positive effect

O=C(O)Cc1cc(I)c(Oc2ccc(O)c(I)c2)c(I)c1 [TRIAC, triiodothyroacetic acid]
effects on thyroid hormone levels ([5]; all 3 clinical studies, after 8 weeks treatment): no significant effects
other blood analysis ([5]; clinical studies (15-16)): normal levels
general toxicity and local irritation [6]: neither any clinical signs of general toxicity nor any local irritation
dose necessary to obtain similar metabolic effects, relative to T3 ([7]; human, in vivo): greater than 15 times
dose necessary to obtain similar metabolic effects, relative to T4 ([7]; human, in vivo): > 10 times
tachycardia compared with T4 or T3 ([7]; human, in vivo): does not evoke tachycardia as effectively as T4 or T3
tolerability ([7]; oral administration, daily doses of 3.4 mg, up to 3 weeks): well tolerated
effect on psoriasis in comparison with placebo [8]: no statistically significant effects
safety of topical treatment [8]: safe
procollagen I and III compared to placebo ([9]; TRIAC 0.03% and 0.1% cream, both groups, 7 days after start of treatment, pre-treatment with topical betamethasone 17-valerate): statistically significant increase
PINP synthesis compared to placebo ([9]; TRIAC 0.03% cream, healthy volunteers, skin pretreated with betamethasone valerate): significantly more effective
lowest lethal dose ([10]; rat, in vivo, ip): 100 mg/kg
LD50 ([10]; single dose, intraperitoneal, female rats): 295 mg/kg
LD50 ([10]; single dose, intraperitoneal, male rats): 143 mg/kg
no observed effect level (NOEL) ([10]; single dose, intraperitoneal, suspended in 0.8% hydroxyl propyl methylcellulose gel, rats): 46.4 mg/kg
skin thickness in epidermis and dermis ([11]; TRIAC 0.1% cream, after 8 weeks of treatment): significantly higher
effect on glucocorticoid-induced skin atrophy ([11]; topical, patients treated with potent topical corticosteroids for hand eczema): appears to reverse glucocorticoid-induced skin atrophy
skin thickness in mice pretreated with betamethasone valerate ([12]; TRIAC alone, 0.03%): could restore skin thickness
effect on skin atrophy induced by potent topical glucocorticoids ([12]; topical administration, mice): prevents skin atrophy
skin thickness of normal skin ([12]; topical, mice): increase skin thickness
side effects ([12]; topical, compared with vitamin A and D derivatives): no side effects were seen
genotoxic potential [13]: no genotoxic potential
genotoxic potential [14]: no genotoxic potential
